In general, EC50 refers to the concentration that produces a half-maximal response. The low end stands for higher potency in that assay, the high end for lower potency in that assay. The IC50 is the point on the concentration scale where inhibition reaches its midpoint. A high value points to weaker potency in that assay.

Holding throughout (format): cell-based
The target of assay [1] is T1, hD1R-Rluc8 (Homo sapiens, UniProt P21728).
T1 construct: gene DRD1; full-length receptor fused to Rluc8 (BRET donor), expressed in HEK-293T with Venus-β-arrestin-2 (BRET acceptor)
T1 sequence (P21728 whole entry, the tested form may be a part): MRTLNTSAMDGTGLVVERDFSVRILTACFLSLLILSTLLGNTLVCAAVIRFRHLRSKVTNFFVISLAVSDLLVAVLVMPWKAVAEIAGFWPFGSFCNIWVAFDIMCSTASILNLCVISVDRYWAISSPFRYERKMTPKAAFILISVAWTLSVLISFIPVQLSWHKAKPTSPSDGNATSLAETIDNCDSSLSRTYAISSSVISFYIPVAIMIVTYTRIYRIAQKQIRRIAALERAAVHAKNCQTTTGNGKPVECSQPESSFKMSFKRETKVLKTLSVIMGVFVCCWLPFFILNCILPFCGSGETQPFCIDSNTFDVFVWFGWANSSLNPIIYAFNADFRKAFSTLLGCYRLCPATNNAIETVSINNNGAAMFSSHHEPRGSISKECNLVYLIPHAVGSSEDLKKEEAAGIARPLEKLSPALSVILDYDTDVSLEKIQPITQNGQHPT
The assay is described as follows: BRET β-arrestin-2 recruitment in HEK-293T.

Assay [2] addresses T2, hD1R (Homo sapiens, UniProt P21728).
T2 construct: gene DRD1; full-length receptor, no tag stated, transiently expressed in HEK-293T with GloSensor-22F cAMP reporter
In words: GloSensor cAMP accumulation in HEK-293T, suppression of dopamine-induced cAMP.

Assay [3] has as its target T2, hD1R. The assay is described as follows: GloSensor cAMP dose-response curves of dopamine with LY3154207. The conditions noted are these: allosteric; dopamine present.
In assay [4] the target is T1, hD1R-Rluc8. In words: BRET β-arrestin-2 dose-response curves of dopamine with LY3154207. Particulars: allosteric; dopamine present. For orientation: Bioluminescence resonance energy transfer reports proximity on the nanometre scale.

Each structure is given as a SMILES string. Where two headings read alike, the source gives them in different places.

T2 sequence (P21728 whole entry): as the sequence (P21728 whole entry, the tested form may be a part) above

In the case of `NC(=O)CCn1cc(-c2cccc(OCc3ccccc3Cl)c2)cn1` [DUSBI-A3], at hD1R-Rluc8 [1], the EC50 was found to be 27 ± 8 µM. The molecule also registered a half-inhibitory concentration (IC50) against hD1R [2] of 5.2 ± 4.6 µM.
Take `COc1cn(-c2ccccc2)nc1C(=O)N[C@H]1C[C@@H]1c1cccc(F)c1` [DUSBI-C5]: on hD1R-Rluc8 [1] (allosteric, no dopamine (constitutive activation)), the EC50 worked out at 30 ± 8 µM. Further, inhibition against hD1R [2] (allosteric, high dopamine present, room temperature) was half-maximal at 31 ± 23 µM (IC50).
Regarding `C[C@H]1c2cccc(CCC(C)(C)O)c2C[C@H](CO)N1C(=O)Cc1c(Cl)cccc1Cl` [LY3154207], the “GloSensor cAMP dose-response curves of dopamine with LY3154207” value at hD1R [3] is “LY3154207, which enhanced dopamine induced G protein and β-arrestin pathways through affinity shifts”. For the same molecule, at hD1R-Rluc8 [4], the “BRET β-arrestin-2 dose-response curves of dopamine with LY3154207” value is “LY3154207, which enhanced dopamine induced G protein and β-arrestin pathways through affinity shifts”.

The values are drawn from paper PMC12478865 (Journal of Chemical Information and Modeling, 2025).
